Test results published in patent publication US5034548A, “Steroid derivatives useful as hypocholesterolemics” (E. I. Du Pont de Nemours and Company, priority 1990, dated 1991).

Tests used:
[1] = system: 3-Hydroxy-3-Methylglutaryl Coenzyme A Reductase (HMGR); test: HMGR Suppression Assay in digitonin-permeabilized CHO cells; format: cell-based, Chinese Hamster; conditions: for IC50: 6 hr incubation at 37°, amount to suppress HMGR activity by 50% relative to controls; for effect on measured HMGR activity: tested under these same conditions
Experimental: The ability of the compounds of Formula I to suppress the activity of HMGR, the rate limiting enzyme of cholesterol biosynthesis, was tested as follows. Chinese Hamster Ovary (CHO) cells were divided twice weekly and were maintained in McCoy's 5A medium supplemented with 1% Cab-O-Sil delipidated Fetal Bovine Serum (FBS) (obtained from Gibco Laboratories, Chagrin Falls, Ohio). Cells were harvested during the logarithmic phase of growth and cell cultures were prepared by adding 0.5×10^6 cells to wash well in a 24 well cluster dish (obtained from Costar, Data Packaging Corp., Cambridge, Mass.) employing 1 mL of the above medium per each well. […] Control cells were treated in an identical fashion to those which received test compound, except they were incubated with the BSA and ethanol suspension only.
Specifically, the medium in each well was aspirated and the cells rinsed with a 50 mM solution of phosphate buffered saline (PBS). One mL of 30 μg/mL of digitonin in CSK buffer (prepared using 10 mM Pipes [piperazine-N,N'-bis(2-ethansulfonic)acid'], 100 mM KCl, 2.5 mM MgCl2, 300 mM sucrose, 1 mM EGTA, pH 6.8) was added to each well and incubated for 10 min at 22° to permeabilize the cells. The buffer was carefully aspirated and the wells were rinsed twice each time with 1 mL of PBS. HMGR activity was measured directly by adding 75 μL of PIB buffer (50 mM potassium phosphate, 1 mM Na2 EDTA, 10 mM dithiothreitol, pH 7.4) to each well and incubating the cells for 30 minutes at 37° as described above. […] HMG-Coenzyme A (15 DPM/pmol), pH 7.4. The assay mixture was incubated for 30 min at 37° and terminated by the addition of 70 μL of [^3 H]-mevalonic acid (35,000 DPM/assay), 0.15 mg/mL in 3 N HCl. The reaction was left to lactonize for an additional 30 min at 37° or overnight at room temperature.
Reaction products were separated by thin layer chromatography on silica gel G (obtained from Analtech, Newark, Del.) developed in an unsaturated environment with acetone:benzene (3:2, v:v). The band corresponding to mevalonolactone was identified by exposure to iodine vapor and was scraped into counting vials. The extent of conversion of starting substrate, HMG-CoA, to mevalonic acid was determined by liquid scintillation counting in Biofluor (obtained from New England Nuclear, Boston, Mass). Corrections for recovery and blank values were made for each sample. Protein determinations were made by the Bio-rad (Bio-Rad, Richmond, Cal.) dye binding assay according to the manufacturer's instruction using bovine serum albumin as standard. Cellular protein was solubilized from culture dishes by the addition of 20 μL of 16 N KOH and assayed directly for protein amount. Suppression values are expressed as the amount of compound required to suppress HMGR activity by 50% relative to that of the controls.

[2] = biological target: T1, Lanosta-8,24-dien-3β-ol 14α-methyl demethylase (Rattus norvegicus, UniProt Q64654); test: Lanosta-8,24-dien-3β-ol 14α-Methyl Demethylase Inhibition Assay; format: biochemical; conditions: for IC50: rat hepatic microsomal preparations, 100 μM lanost-8-en-3β-ol substrate, pH not given, test compounds 0 to 100 μM; for effect on lanosta-8,24-dien-3β-ol 14α-methyl demethylase activity: rat microsomal preparations
T1 construct: determined in rat depatic microsomal preparations; from tissue; host or cells: rat hepatic microsomes
T1 sequence (Q64654 1-503): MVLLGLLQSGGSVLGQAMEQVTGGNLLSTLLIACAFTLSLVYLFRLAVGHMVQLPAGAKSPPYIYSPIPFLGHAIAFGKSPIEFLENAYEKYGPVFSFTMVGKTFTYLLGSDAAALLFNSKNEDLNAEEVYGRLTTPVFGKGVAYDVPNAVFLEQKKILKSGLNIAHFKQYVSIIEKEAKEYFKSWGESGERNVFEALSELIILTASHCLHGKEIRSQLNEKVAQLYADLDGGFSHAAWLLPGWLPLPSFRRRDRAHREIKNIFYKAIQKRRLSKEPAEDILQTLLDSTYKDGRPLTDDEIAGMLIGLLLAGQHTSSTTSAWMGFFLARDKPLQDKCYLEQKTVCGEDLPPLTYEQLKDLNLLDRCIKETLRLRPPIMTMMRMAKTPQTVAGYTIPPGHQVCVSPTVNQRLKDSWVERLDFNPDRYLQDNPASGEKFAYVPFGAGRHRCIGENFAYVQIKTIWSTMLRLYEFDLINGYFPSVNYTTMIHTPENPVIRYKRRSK
Experimental: Lanosta-8,24-dien-3β-ol 14α-methyl demethylase activity was determined in rat depatic microsomal preparations as described in Trzaskos et al., J. Biol. Chem., 261, 16937-16942 (1986). Specifically, test compounds were added to assay mixtures as detergent suspensions with substrate employing 5 mg Triton WR-1339, 100 μM lanost-8-en-3β-ol substrate, and test compounds ranging from 0 to 100 μM. The inhibitor/substrate/detergent suspension was incubated with 2 mg microsomal protein for 5 min at 37° followed by a 10 min incubation initiated by the addition of cofactors required for the reaction. […] Inhibition values are expressed as the amount of compound required to inhibit lanosta-8,24-dien-3β-ol 14α-methyldemethylase activity by 50% relative to that of the controls.

[3] = system: cholesterol synthesis in CHO cells; test: De novo cholesterol synthesis: incorporation of radiolabeled acetate into cholesterol in CHO cells; format: cell-based, Chinese Hamster; conditions: for Cholesterol Synthesis (DPMs): 17 hr + 2 hr with [14C]-acetic acid, Control 38855
Experimental: The ability of the compounds of Formula I to decrease de novo cholesterol synthesis was tested by measuring the incorporation of radiolabeled acetate into cholesterol synthesized in CHO cells. To conduct this experiment, CHO cells were plated at 0.3×10^6 cells per 15×60 mm tissue culture dish in 5 mL of McCoy's modified medium (Gibco Laboratories) containing 1% Cab-O-Sil delipidated FBS and incubated for 48 hours at 37° in a 5% CO2, 95% air environment. Test compounds in a 2.5% suspension of BSA (fatty acid free) in ethanol were then added to the cultures such that the final ethanol and BSA concentrations were 0.5% and […], respectively. Control cultures received ethanol and BSA alone. The cultures containing test compounds were then incubated at 37° in a 5% Co, 95% air environment for 17 hr before the addition of [1,2-^14 C]-acetic acid (57 μCi/mmol); obtained from New England Nuclear, Boston, Mass.) at a concentration of 10 μCi/mL for 2 additional hr.
The cells were harvested by washing the cells twice with 5 mL of cold PBS and scraping the cells into 1 mL PBS. The cell-containing solution was then transferred to 15 mL extraction tubes and treated with 1 mL of 90% methanol (containing 15% KOH, 100 μg/mL butylated hydroxytoluene). All samples were saponified for 1 hr at 80° and the non-saponifiable lipids then extracted with petroleum ether. The petroleum ether fractions were dried under nitrogen, resuspended in ethanol, counted and analyzed by reverse phase HPLC at 45° using an Ultrashpere Octyl column (from Altex Scientific Inc., Berkeley, Calif.) with a mobile phase of acetonitrile:methanol:water (44:44:12). The amount of cholesterol synthesis is measured by the amount of radiolabeled acetate incorporated into the cholesterol peak. The percent of cholesterol synthesis in the treated culture is calculated based upon the control culture.

[4] = Cricetulus griseus, 19 h, 10 μM, percent of control culture (100)

Row | SMILES | IC50 [1] [nM] | IC50 [2] [nM] | other results
1 | CC(C)CCC[C@@H](C)[C@H]1CC[C@@]2(C=NO)C3=C(CC[C@]12C)[C@@]1(C)CC[C@H](O)C(C)(C)[C@@H]1CC3 [Compound 15a, lanost-8-en-32-aldoxime-3β-ol] | 40 | 1100 | 
2 | CC(C)=CCC[C@@H](C)[C@H]1CC[C@@]2(C)C3=C(CC[C@]12C)[C@@]1(C)CC[C@H](O)C(C)(C)[C@@H]1CC3 [Compound 1, lanosta-8,24-dien-3β-ol, reference compound] |  |  | effect on measured HMGR activity [1]: without effect; effect on lanosta-8,24-dien-3β-ol 14α-methyl demethylase activity [2]: clearly served as substrates
3 | CC(C)CCC[C@@H](C)[C@H]1C[C@H](O)[C@@]2(O)C3=C(CC[C@]12C)[C@@]1(C)CC[C@H](O)C[C@@H]1CC3 [Compound 35a, 5α-cholest-8-en-3β,14α,15α-triol] | 400 | > 100000 | 
4 | CC(C)CCC[C@@H](C)[C@H]1C[C@H](F)[C@@]2(C)C3=CC[C@H]4C[C@@H](O)CC[C@]4(C)[C@H]3CC[C@]12C [Compound 27b, 15α-fluoro-14α-methyl-5α-cholest-7-en-3β-ol] | 500 | > 100000 | 
5 | CC(C)CCC[C@@H](C)[C@H]1CC[C@@]2(C=NO)C3=CC[C@H]4C(C)(C)[C@@H](O)CC[C@]4(C)[C@H]3CC[C@]12C [Compound 15b, lanost-7-en-32-aldoxime-3β-ol] | 1400 | 3000 | Cholesterol Synthesis (DPMs) ([3]; 0.5 μM): 1534 DPMs; activity at 0.5 µM ([3]; Cricetulus griseus, 19 h, 0.5 μM, percent of control culture (100)): 4%
6 | C=CC(O)[C@@]12CC[C@H]([C@H](C)CCCC(C)C)[C@@]1(C)CCC1=C2CC[C@H]2C(C)(C)[C@@H](O)CC[C@]12C (single isomer, unassigned) [Compound 11a, 4,4-dimethyl-14α-(1'-hydroxy-2'-propenyl)-5α-cholest-8-en-3β-ol] | 60 |  | Cholesterol Synthesis (DPMs) ([3]; 1 μM): 360 DPMs
7 | C=CC(O)[C@@]12CC[C@H]([C@H](C)CCCC(C)C)[C@@]1(C)CCC1=C2CC[C@H]2C(C)(C)[C@@H](O)CC[C@]12C (single isomer, unassigned) [Compound 12a, 4,4-dimethyl-14α-(1'-hydroxy-2'-propenyl)-5α-cholest-8-en-3β-ol] | 130 | 3200 | Cholesterol Synthesis (DPMs) ([3]; 1 μM): 636 DPMs; activity at 1 µM ([3]; Cricetulus griseus, 19 h, 1 μM, percent of control culture (100)): 2%
8 | CC(C)CCC[C@@H](C)[C@H]1CC[C@@]2(C#N)C3=C(CC[C@]12C)[C@@]1(C)CC[C@H](O)C(C)(C)[C@@H]1CC3 [Compound 17a, 14α-cyano-4,4-dimethyl-5α-cholest-8-en-3β-ol] | 1400 | 11000 | 
9 | CC(C)CCC[C@@H](C)[C@H]1CC[C@@]2(C)C3=C(CC[C@]12C)[C@@]1(C)CC[C@H](O)C(C)(C)[C@@H]1CC3 [lanost-8-en-3β-ol, reference compound] |  |  | effect on measured HMGR activity [1]: without effect; effect on lanosta-8,24-dien-3β-ol 14α-methyl demethylase activity [2]: clearly served as substrates
10 | CC(C)CCC[C@@H](C)[C@H]1CC[C@@]2(C(F)F)C3=C(CC[C@]12C)[C@@]1(C)CC[C@H](O)C(C)(C)[C@@H]1CC3 [Compound 9a, 32,32-difluoro-lanost-8-en-3β-ol] | 1300 | 16000 | Cholesterol Synthesis (DPMs) ([3]; 10 μM): 3615 DPMs; activity at 10 µM [3, 4]: 9%
11 | CC(C)CCC[C@@H](C)[C@H]1C[C@H](F)[C@@]2(C)C3=CC[C@H]4C(C)(C)[C@@H](O)CC[C@]4(C)[C@H]3CC[C@]12C [Compound 26b, 15α-fluoro-lanost-7-en-3β-ol] | 1000 | > 100000 | Cholesterol Synthesis (DPMs) ([3]; 10 μM): 12279 DPMs; activity at 10 µM [3, 4]: 32%
12 | CC(C)CCC[C@@H](C)[C@H]1CC[C@@]2(C(F)F)C3=CC[C@H]4C(C)(C)[C@@H](O)CC[C@]4(C)[C@H]3CC[C@]12C [Compound 9b, 32,32-difluoro-lanost-7-en-3β-ol] | 1400 | 37000 | Cholesterol Synthesis (DPMs) ([3]; 10 μM): 10125 DPMs; activity at 10 µM [3, 4]: 26%
13 | CC(C)CCC[C@@H](C)[C@H]1CC[C@H]2[C@@H]3CC=C4C[C@@H](O)CC[C@]4(C)[C@H]3CC[C@]12C [cholesterol] |  |  | effect on measured HMGR activity [1]: without effect; effect on lanosta-8,24-dien-3β-ol 14α-methyl demethylase activity [2]: without effect
